Consider 27 molecules from patent publication US7419969B2 (Bristol-Myers Squibb Company, priority 2004, dated 2008).

One may read the IC50 as the point on the concentration scale where inhibition reaches its midpoint.

The target of this assay is T1, HIV-integrase (Human immunodeficiency virus type 1 group M subtype B, UniProt P04585).
T1 construct: Recombinant integrase (0.26 ng) was incubated with the beads
Kind of assay: in-vitro activity against HIV-integrase (HIV Integrase Inhibition, SPA bead assay). It is filed as biochemical. The settings on record: Table 1; recombinant integrase, activity class. The method, then:
To evaluate in-vitro activity against HIV-integrase, 5 pmole of biotin labeled substrate DNA was bound to 100 μg of Streptavidin coated PVT SPA beads (Amersham Pharmacia Biotech). Recombinant integrase (0.26 ng) was incubated with the beads for 90 min at 37° C. Unbound enzyme was removed by washing the complex followed by addition of inhibitors and […] of P33 labeled target DNA. The reaction was stopped by adding EDTA to a final concentration of 10 mM. Samples were counted in TopCountNXT (Packard) and the CPM was used as a measure of integration. The reaction condition was as described in Engelman, A. and Craigie, R. J. Vitrol. 1996, 69, 5908. The sequences of substrate and target DNA were described in Nucleic Acid Research 1994, 22, 1121.
On to `CSc1cc(F)ccc1CNC(=O)c1nc2n(c(=O)c1O)CCOC21CCOC1` (stereo not drawn) [Example 39, N-[[4-fluoro-2-(methylthio)phenyl]methyl]-4,5,6′,7′-tetrahydro-3′-hydroxy-4′-oxo-spiro[furan-3(2H),9′(4′H)-pyrimido[2,1-c][1,4]oxazine]-2′-carboxamide], for which the IC50 was in the range of 1 to 10 nM.
Consider `O=C(NCc1ccc(F)cc1)c1nc2n(c(=O)c1O)CCOC21CCOCC1` [Example 40, N-[(4-fluorophenyl)methyl]-2,3,5,6,6′,7′-hexahydro-3′-hydroxy-4′-oxo-spiro[4H-pyran-4,9′(4′H)-pyrimido[2,1-c][1,4]oxazine]-2′-carboxamide], for which the IC50 lay in the range of 1 to 10 nM.
With `O=C(NCc1ccc(F)cc1-n1cncn1)c1nc2n(c(=O)c1O)CCOC21CCOCC1` [Example 41], the IC50 was 1 to 10 nM.
The same measure for `O=C(NCc1ccc(F)cc1N1CCCCS1(=O)=O)c1nc2n(c(=O)c1O)CCOC21CCOCC1` [Example 42, N-[[4-fluoro-2-(tetrahydro-1,1-dioxido-2H-1,2-thiazin-2-yl)phenyl]methyl]-2,3,5,6,6′,7′-hexahydro-3′-hydroxy-4′-oxo-spiro[4H-pyran-4,9′(4′H)-pyrimido[2,1-c][1,4]oxazine]-2′-carboxamide]: 1 to 10 nM.
For `O=C(NCc1ccccc1N1CCCCS1(=O)=O)c1nc2n(c(=O)c1O)CCOC21CCOCC1` [Example 43, N-[[2-(tetrahydro-1,1-dioxido-2H-1,2-thiazin-2-yl)phenyl]methyl]-2,3,5,6,6′,7′-hexahydro-3′-hydroxy-4′-oxo-spiro[4H-pyran-4,9′(4′H)-pyrimido[2,1-c][1,4]oxazine]-2′-carboxamide] the value was 10 to 100 nM; for `CS(=O)(=O)c1cc(F)ccc1CNC(=O)c1nc2n(c(=O)c1O)CCOC21CCOCC1` [Example 44, N-[[4-fluoro-2-(methylsulfonyl)phenyl]methyl]-2,3,5,6,6′,7′-hexahydro-3′-hydroxy-4′-oxo-spiro[4H-pyran-4,9′(4′H)-pyrimido[2,1-c][1,4]oxazine]-2′-carboxamide], 1 to 10 nM.
For `Cc1cc(CNC(=O)c2nc3n(c(=O)c2O)CCOC32CCOCC2)ccc1F` [Example 45, N-[(4-fluoro-3-methylphenyl)methyl]-2,3,5,6,6′,7′-hexahydro-3′-hydroxy-4′-oxo-spiro[4H-pyran-4,9′(4′H)-pyrimido[2,1-c][1,4]oxazine]-2′-carboxamide] the value was 1 to 10 nM.
Take `COc1ccc(CNC(=O)c2nc3n(c(=O)c2O)CCOC32CCOCC2)c(OC)c1` [Example 46, N-[(2,4-dimethoxyphenyl)methyl]-2,3,5,6,6′,7′-hexahydro-3′-hydroxy-4′-oxo-spiro[4H-pyran-4,9′(4′H)-pyrimido[2,1-c][1,4]oxazine]-2′-carboxamide]: the 50% inhibitory concentration (IC50) was 10 to 100 nM.
The same measure for `CN(C)S(=O)(=O)c1cc(F)ccc1CNC(=O)c1nc2n(c(=O)c1O)CCOC21CCOCC1` [Example 47, N-[[2-[(dimethylamino)sulfonyl]-4-fluorophenyl]methyl]-2,3,5,6,6′,7′-hexahydro-3′-hydroxy-4′-oxo-spiro[4H-pyran-4,9′(4′H)-pyrimido[2,1-c][1,4]oxazine]-2′-carboxamide]: 10 to 100 nM; for `Cc1ccc(CNC(=O)c2nc3n(c(=O)c2O)CCOC32CCOCC2)cc1C` [Example 48, N-[(3,4-dimethylphenyl)methyl]-2,3,5,6,6′,7′-hexahydro-3′-hydroxy-4′-oxo-spiro[4H-pyran-4,9′(4′H)-pyrimido[2,1-c][1,4]oxazine]-2′-carboxamide]: 1 to 10 nM; for `Cc1ncnn1-c1cc(F)ccc1CNC(=O)c1nc2n(c(=O)c1O)CCOC21CCOCC1` [Example 49, N-[[4-fluoro-2-(5-methyl-1H-1,2,4-triazol-1-yl)phenyl]methyl]-2,3,5,6,6′, 7-hexahydro-3′-hydroxy-4′-oxo-spiro[4H-pyran-4,9′(4′H)-pyrimido[2,1-c][1,4]oxazine]-2′-carboxamide]: 1 to 10 nM.
The same measure for `Cc1ncn(-c2cc(F)ccc2CNC(=O)c2nc3n(c(=O)c2O)CCOC32CCOCC2)n1` [Example 50, N-[[4-fluoro-2-(3-methyl-1H-1,2,4-triazol-1-yl)phenyl]methyl]-2,3,5,6,6′,7′-hexahydro-3′-hydroxy-4′-oxo-spiro[4H-pyran-4,9′(4′H)-pyrimido[2,1-c][1,4]oxazine]-2′-carboxamide]: 1 to 10 nM.
Take `O=C(NCc1ccc(F)cc1-n1cncn1)c1nc2n(c(=O)c1O)CCOC21CCC1` [Example 51, N-[[4-fluoro-2-(1H-1,2,4-triazol-1-yl)phenyl]methyl]-6′,7′-dihydro-3′-hydroxy-4′-oxo-spiro[cyclobutane-1,9′(4′H)-pyrimido[2,1-c][1,4]oxazine]-2′-carboxamide]: the IC50 lay in the range of 1 to 10 nM.
The same measure for `O=C(NCc1ccc(F)cc1)c1nc2n(c(=O)c1O)CCOC21CCC1` [Example 52, N-[(4-fluorophenyl)methyl]-6′,7′-dihydro-3′-hydroxy-4′-oxo-spiro[cyclobutane-1,9′(4′H)-pyrimido[2,1-c][1,4]oxazine]-2′-carboxamide]: 1 to 10 nM.
Turning to `CS(=O)(=O)c1cc(F)ccc1CNC(=O)c1nc2n(c(=O)c1O)CCOC21CCC1` [Example 53, N-[[4-fluoro-2-(methylsulfonyl)phenyl]methyl]-6′,7′-dihydro-3′-hydroxy-4′-oxo-spiro[cyclobutane-1,9′(4′H)-pyrimido[2,1-c][1,4]oxazine]-2′-carboxamide], the IC50 fell in the range of 1 to 10 nM.
The same measure for `CN(C)S(=O)(=O)c1cc(F)ccc1CNC(=O)c1nc2n(c(=O)c1O)CCOC21CCC1` [Example 54, N-[[2-[(dimethylamino)sulfonyl]-4-fluorophenyl]methyl]-6′,7′-dihydro-3′-hydroxy-4′-oxo-spiro[cyclobutane-1,9′(4′H)-pyrimido[2,1-c][1,4]oxazine]-2′-carboxamide]: 1 to 10 nM.
For `O=C(NCc1ccc(F)cc1N1CCCCS1(=O)=O)c1nc2n(c(=O)c1O)CCOC21CCC1` [Example 55, N-[[4-fluoro-2-(tetrahydro-1,1-dioxido-2H-1,2-thiazin-2-yl)phenyl]methyl]-6′,7′-dihydro-3′-hydroxy-4′-oxo-spiro[cyclobutane-1,9′(4′H)-pyrimido[2,1-c][1,4]oxazine]-2′-carboxamide] the value was 1 to 10 nM; for `O=C(NCc1ccccc1N1CCCCS1(=O)=O)c1nc2n(c(=O)c1O)CCOC21CCC1` [Example 56, N-[[2-(tetrahydro-1,1-dioxido-2H-1,2-thiazin-2-yl)phenyl]methyl]-6′,7′-dihydro-3′-hydroxy-4′-oxo-spiro[cyclobutane-1,9′(4′H)-pyrimido[2,1-c][1,4]oxazine]-2′-carboxamide], 10 to 100 nM.
With `Cc1ncnn1-c1cc(F)ccc1CNC(=O)c1nc2n(c(=O)c1O)CCOC21CCC1` [Example 57, N-[[4-fluoro-2-(5-methyl-1H-1,2,4-triazol-1-yl)phenyl]methyl]-6′,7′-dihydro-3′-hydroxy-4′-oxo-spiro[cyclobutane-1,9′(4′H)-pyrimido[2,1-c][1,4]oxazine]-2′-carboxamide], the 50% inhibitory concentration (IC50) lay in the range of 1 to 10 nM.
The same measure for `CS(=O)(=O)c1cc(F)ccc1CNC(=O)c1nc2n(c(=O)c1O)CCCOC21CCC1` [Example 58, N-[[4-fluoro-2-(methylsulfonyl)phenyl]methyl]-7′,8′-dihydro-3′-hydroxy-4′-oxo-spiro[cyclobutane-1,10′(4′H)-[6H]pyrimido[2,1-c][1,4]oxazepine]-2′-carboxamide]: 10 to 100 nM; for `O=C(NCc1ccc(F)cc1)c1nc2n(c(=O)c1O)CCCOC21CCC1` [Example 59, N-[(4-fluorophenyl)methyl]-7′,8′-dihydro-3′-hydroxy-4′-oxo-spiro[cyclobutane-1,1 0′(4′H)-[6H]pyrimido[2,1-c][1,4]oxazepine]-2′-carboxamide]: 1 to 10 nM; for `O=C(NCc1ccc(F)cc1-n1cncn1)c1nc2n(c(=O)c1O)CCCOC21CCC1` [Example 60, N-[[4-fluoro-2-(1 H-1,2,4-triazol-1-yl)phenyl]methyl]-7′,8′-dihydro-3′-hydroxy-4′-oxo-spiro[cyclobutane-1,10′(4′H)-[6H]pyrimido[2,1-c][1,4]oxazepine]-2′-carboxamide]: 1 to 10 nM.
The same measure for `CN(C)S(=O)(=O)c1cc(F)ccc1CNC(=O)c1nc2n(c(=O)c1O)CCCOC21CCC1` [Example 61]: 10 to 100 nM.
For `O=C(NCc1ccccc1)c1nc2n(c(=O)c1O)CCCC21CCC1` [Example 62, N-(phenylmethyl)-7′,8′-dihydro-3′-hydroxy-4′-oxo-spiro[cyclobutane-1,9′(6′H)-[4H]pyrido[1,2-α]pyrimidine]-2′-carboxamide] the value was 1 to 10 nM; for `Cc1ccc(CNC(=O)c2nc3n(c(=O)c2O)CCCC32CCC2)cc1` [Example 63, N-[(4-methylphenyl)methyl]-7′,8′-dihydro-3′-hydroxy-4′-oxo-spiro[cyclobutane-1,9′(6′H)-[4H]pyrido[1,2-α]pyrimidine]-2′-carboxamide], 10 to 100 nM; for `COc1ccc(CNC(=O)c2nc3n(c(=O)c2O)CCCC32CCC2)cc1` [Example 64, N-[(4-methoxyphenyl)methyl]-7′,8′-dihydro-3′-hydroxy-4′-oxo-spiro[cyclobutane-1,9′(6H)^1-[4H]pyrido[1,2-α]pyrimidine]-2′-carboxamide], 10 to 100 nM.
As to `O=C(NCc1ccc(Cl)cc1)c1nc2n(c(=O)c1O)CCCC21CCC1` [Example 65, N-[(4-chlorophenyl)methyl]-7′,8′-dihydro-3′-hydroxy-4′-oxo-spiro[cyclobutane-1,9′(6′H)-[4H]pyrido[1,2-α]pyrimidine]-2′-carboxamide], the IC50 lay within 1 to 10 nM.
